Results reported in patent US8188134B2, “Thiophene-carboxamides useful as inhibitors of protein kinases” (Vertex Pharmaceuticals Incorporated, priority 2006, dated 2012).

Target: T1, Plk1 (Homo sapiens, UniProt P53350)
T1 construct: in the presence of 15 nM Plk1 (A20-K338)
Assay: Plk1 inhibition assay (radioactive-phosphate incorporation)
Assay type: biochemical
Conditions: Ki(app)
Experimental: The compounds of the present invention are evaluated as inhibitors of human PLK kinase using the following assays.
Compounds were screened for their ability to inhibit Plk1 using a radioactive-phosphate incorporation assay. Assays were carried out in a mixture of 25 mM HEPES (pH 7.5), 10 mM MgCl2, and 1 mM DTT. Final substrate concentrations were 50 μM [γ-33P]ATP (136 mCi 33P ATP/mmol ATP, Amersham Pharmacia Biotech/Sigma Chemicals) and 10 μM peptide (SAM68 protein Δ332-443). Assays were carried out at 25° C. in the presence of 15 nM Plk1 (A20-K338). An assay stock buffer solution was prepared containing all of the reagents listed above, with the exception of ATP and the test compound of interest. 30 μL of the stock solution was placed in a 96 well plate followed by addition of 2 μL of DMSO stock containing serial dilutions of the test compound (typically starting from a final concentration of 10 μM with 2-fold serial dilutions) in duplicate (final DMSO concentration 5%). The plate was pre-incubated for 10 minutes at 25° C. and the reaction initiated by addition of 8 μL [γ-33P]ATP (final concentration 50 μM). […]
After removing mean background values for all of the data points, Ki(app) data were calculated from non-linear regression analysis of the initial rate data using the Prism software package (GraphPad Prism version 3.0cx for Macintosh, GraphPad Software, San Diego Calif., USA). […]

T1 sequence (P53350 20-338): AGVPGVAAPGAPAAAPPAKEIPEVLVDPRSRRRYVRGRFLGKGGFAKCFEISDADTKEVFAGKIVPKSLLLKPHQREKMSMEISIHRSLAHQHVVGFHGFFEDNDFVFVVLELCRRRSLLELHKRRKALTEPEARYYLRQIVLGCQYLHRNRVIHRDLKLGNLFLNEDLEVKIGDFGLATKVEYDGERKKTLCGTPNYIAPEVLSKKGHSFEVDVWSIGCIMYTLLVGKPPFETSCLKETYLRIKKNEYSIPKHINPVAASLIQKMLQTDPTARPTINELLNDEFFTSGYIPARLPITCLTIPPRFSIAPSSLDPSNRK

Ki (the text does not say which of the two Plk1 protocols was used)	Ki (lower bound in nM, upper bound in μM, protocol not specified)	Compound
10 to 100 nM		CC(Oc1cc(-n2ccnc2)sc1C(N)=O)c1ccccc1Cl (centres unmarked) [I-1, 3-[1-(2-Chloro-phenyl)-ethoxy]-5-imidazol-1-yl-thiophene-2-carboxylic acid amide]
	100 to 4000 nM	CC(Oc1cc(-c2cc(N)n[nH]2)sc1C(N)=O)c1ccccc1Cl (centres unmarked) [I-2, 5-(5-Amino-2H-pyrazol-3-yl)-3-[1-(2-chloro-phenyl)-ethoxy]-thiophene-2-carboxylic acid amide]
